Measurements taken from PMC8848307 (Journal of medicinal chemistry, 2019).

How the values were obtained:
[1] = molecular target: T1, STAT3 protein (Homo sapiens, UniProt P40763); assay: Western blotting of STAT3 degradation in Molm-16 cells; format: cell-based
[2] = molecular target: T1, STAT3 protein; assay: Western blotting of STAT3 degradation in SU-DHL-1 cells; format: cell-based; details: SU-DHL-1 cells, ratio of DC50

T1 sequence (P40763 whole entry): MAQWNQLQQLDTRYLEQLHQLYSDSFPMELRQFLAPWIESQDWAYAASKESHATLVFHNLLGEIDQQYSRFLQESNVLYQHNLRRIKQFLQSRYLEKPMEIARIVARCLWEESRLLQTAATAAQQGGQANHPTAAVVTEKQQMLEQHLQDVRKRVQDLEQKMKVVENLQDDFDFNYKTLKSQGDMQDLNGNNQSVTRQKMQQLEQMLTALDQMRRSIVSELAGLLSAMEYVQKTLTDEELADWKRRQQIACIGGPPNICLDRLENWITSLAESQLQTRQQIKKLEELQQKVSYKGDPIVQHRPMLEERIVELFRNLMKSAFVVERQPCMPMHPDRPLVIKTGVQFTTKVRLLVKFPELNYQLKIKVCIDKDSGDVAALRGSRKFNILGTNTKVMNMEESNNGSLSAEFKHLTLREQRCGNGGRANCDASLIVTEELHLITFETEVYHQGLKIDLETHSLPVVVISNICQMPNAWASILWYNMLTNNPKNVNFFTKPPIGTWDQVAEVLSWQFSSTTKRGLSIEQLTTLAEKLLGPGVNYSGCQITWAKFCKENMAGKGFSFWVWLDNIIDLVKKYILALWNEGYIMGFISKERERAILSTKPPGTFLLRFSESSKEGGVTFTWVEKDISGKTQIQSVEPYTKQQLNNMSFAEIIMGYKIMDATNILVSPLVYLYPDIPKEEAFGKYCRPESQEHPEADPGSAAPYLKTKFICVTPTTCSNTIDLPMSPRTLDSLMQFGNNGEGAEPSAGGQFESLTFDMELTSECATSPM

NC(=O)CC[C@H](NC(=O)[C@@H]1CC[C@@H]2CCN(C(=O)CCCC#Cc3cccc4c3CN(C3CCC(=O)NC3=O)C4=O)C[C@H](NC(=O)c3cc4cc(C(F)(F)P(=O)(O)O)ccc4[nH]3)C(=O)N21)C(=O)NC(c1ccccc1)c1ccccc1 (stereo partly drawn) [Compound 12, ((2-(((5S,8S,10aR)-8-(((S)-5-Amino-1-(benzhydrylamino)-1,5-dioxopentan-2-yl)carbamoyl)-3-(6-(2-(2,6-dioxopiperidin-3-yl)-1-oxoisoindolin-4-yl)hex-5-ynoyl)-6-oxodecahydropyrrolo-[1,2-a][1,5]diazocin-5-yl)carbamoyl)-1H-indol-5-yl)-difluoromethyl)phosphonic Acid]
effect on the level of total STAT3 protein ([1]; Molm-16, 4 h, concentrations up to 1 μM): no effect
effect on the level of pSTAT3^Y705 protein ([1]; Molm-16, 4 h, up to / at 1 μM): only minimally

NC(=O)CC[C@H](NC(=O)[C@@H]1CC[C@@H]2CCN(C(=O)CCCCC#Cc3cccc4c3CN(C3CCC(=O)NC3=O)C4=O)C[C@H](NC(=O)c3cc4cc(C(F)(F)P(=O)(O)O)ccc4[nH]3)C(=O)N21)C(=O)NC(c1ccccc1)c1ccccc1 (stereo partly drawn) [Compound 13, ((2-(((5S,8S,10aR)-8-(((S)-5-Amino-1-(benzhydrylamino)-1,5-dioxopentan-2-yl)carbamoyl)-3-(7-(2-(2,6-dioxopiperidin-3-yl)-1-oxoisoindolin-4-yl)hept-6-ynoyl)-6-oxodecahydropyrrolo[1,2-a][1,5]diazocin-5-yl)carbamoyl)-1H-indol-5-yl)difluoromethyl)phosphonic Acid]
times more potent than 12 in STAT3 degradation ([1]; Molm-16 cells, ratio of DC50): 10 times

NC(=O)CC[C@H](NC(=O)[C@@H]1CC[C@@H]2CCN(C(=O)CCCCCCCCC#Cc3cccc4c3CN(C3CCC(=O)NC3=O)C4=O)C[C@H](NC(=O)c3cc4cc(C(F)(F)P(=O)(O)O)ccc4[nH]3)C(=O)N21)C(=O)NC(c1ccccc1)c1ccccc1 (stereo partly drawn) [Compound 16, ((2-(((5S,8S,10aR)-8-(((S)-5-Amino-1-(benzhydrylamino)-1,5-dioxopentan-2-yl)carbamoyl)-3-(11-(2-(2,6-dioxopiperidin-3-yl)-1-oxoisoindolin-4-yl)undec-10-ynoyl)-6-oxodecahydropyrrolo[1,2-a][1,5]diazocin-5-yl)carbamoyl)-1H-indol-5-yl)difluoromethyl)phosphonic Acid]
times less potent than SD-36 in STAT3 degradation ([1]; Molm-16 cells, ratio of DC50): 2–3 times

NC(=O)CC[C@H](NC(=O)[C@@H]1CC[C@@H]2CCN(C(=O)OCCCCC#Cc3cccc4c3CN(C3CCC(=O)NC3=O)C4=O)C[C@H](NC(=O)c3cc4cc(C(F)(F)P(=O)(O)O)ccc4[nH]3)C(=O)N21)C(=O)NC(c1ccccc1)c1ccccc1 (stereo partly drawn) [Compound 18, ((2-(((5S,8S,10aR)-8-(((S)-5-Amino-1-(benzhydrylamino)-1,5-dioxopentan-2-yl)carbamoyl)-3-(((6-(2-(2,6-dioxopiperidin-3-yl)-1-oxoisoindolin-4-yl)hex-5-yn-1-yl)oxy)carbonyl)-6-oxodecahydropyrrolo[1,2-a][1,5]diazocin-5-yl)carbamoyl)-1H-indol-5-yl)difluoromethyl)phosphonic Acid]
times less potent than SD-36 in STAT3 degradation [2]: 2 times

NC(=O)CC[C@H](NC(=O)[C@@H]1CC[C@@H]2CCN(C(=O)c3cnn(CCCC#Cc4cccc5c4CN(C4CCC(=O)NC4=O)C5=O)c3)C[C@H](NC(=O)c3cc4cc(C(F)(F)P(=O)(O)O)ccc4[nH]3)C(=O)N21)C(=O)NC(c1ccccc1)c1ccccc1 (stereo partly drawn) [Compound 20, ((2-(((5S,8S,10aR)-8-(((S)-5-Amino-1-(benzhydrylamino)-1,5-dioxopentan-2-yl)carbamoyl)-3-(1-(5-(2-(2,6-dioxopiperidin-3-yl)-1-oxoisoindolin-4-yl)pent-4-yn-1-yl)-1H-pyrazole-4-carbonyl)-6-oxodecahydropyrrolo[1,2-a][1,5]diazocin-5-yl)-carbamoyl)-1H-indol-5-yl)difluoromethyl)phosphonic Acid]
times less potent than SD-36 in STAT3 degradation ([1]; Molm-16 cells, ratio of DC50): 3–4 times

NC(=O)CC[C@H](NC(=O)[C@@H]1CC[C@@H]2CCN(C(=O)CCCn3cc(C#Cc4cccc5c4CN(C4CCC(=O)NC4=O)C5=O)cn3)C[C@H](NC(=O)c3cc4cc(C(F)(F)P(=O)(O)O)ccc4[nH]3)C(=O)N21)C(=O)NC(c1ccccc1)c1ccccc1 (stereo partly drawn) [Compound 21, ((2-(((5S,8S,10aR)-8-(((S)-5-Amino-1-(benzhydrylamino)-1,5-dioxopentan-2-yl)carbamoyl)-3-(4-(4-((2-(2,6-dioxopiperidin-3-yl)-1-oxoisoindolin-4-yl)ethynyl)-1H-pyrazol-1-yl)butanoyl)-6-oxodecahydropyrrolo[1,2-a][1,5]diazocin-5-yl)carbamoyl)-1H-indol-5-yl)difluoromethyl)phosphonic Acid]
times less potent than SD-36 in STAT3 degradation ([1]; Molm-16 cells, ratio of DC50): 3–4 times

NC(=O)CC[C@H](NC(=O)[C@@H]1CC[C@@H]2CCN(C(=O)N3CCC(CCC#Cc4cccc5c4CN(C4CCC(=O)NC4=O)C5=O)CC3)C[C@H](NC(=O)c3cc4cc(C(F)(F)P(=O)(O)O)ccc4[nH]3)C(=O)N21)C(=O)NC(c1ccccc1)c1ccccc1 (stereo partly drawn) [Compound 22, ((2-(((5S,8S,10aR)-8-(((S)-5-Amino-1-(benzhydrylamino)-1,5-dioxopentan-2-yl)carbamoyl)-3-(4-(4-(2-(2,6-dioxopiperidin-3-yl)-1-oxoisoindolin-4-yl)but-3-yn-1-yl)piperidine-1-carbon-yl)-6-oxodecahydropyrrolo[1,2-a][1,5]diazocin-5-yl)-carbamoyl)-1H-indol-5-yl)difluoromethyl)phosphonic Acid]
times less potent than SD-36 in STAT3 degradation ([1]; Molm-16 cells, ratio of DC50): 3 times

NC(=O)CC[C@H](NC(=O)[C@@H]1CC[C@@H]2CCN(C(=O)CCN3CCC(C#Cc4cccc5c4CN(C4CCC(=O)NC4=O)C5=O)CC3)C[C@H](NC(=O)c3cc4cc(C(F)(F)P(=O)(O)O)ccc4[nH]3)C(=O)N21)C(=O)NC(c1ccccc1)c1ccccc1 (stereo partly drawn) [Compound 23, ((2-(((5S,8S,10aR)-8-(((S)-5-Amino-1-(benzhydrylamino)-1,5-dioxopentan-2-yl)carbamoyl)-3-(3-(4-((2-(2,6-dioxopiperidin-3-yl)-1-oxoisoindolin-4-yl)ethynyl)piperidin-1-yl)propanoyl)-6-oxodecahydropyrrolo[1,2-a][1,5]diazocin-5-yl)carbamoyl)-1H-indol-5-yl)difluoromethyl)phosphonic Acid]
times less potent than SD-36 in STAT3 degradation ([1]; Molm-16 cells, ratio of DC50): 40 times

NC(=O)CC[C@H](NC(=O)[C@@H]1CC[C@@H]2CCN(C(=O)CC(=O)N3CCC(C#Cc4cccc5c4CN(C4CCC(=O)NC4=O)C5=O)CC3)C[C@H](NC(=O)c3cc4cc(C(F)(F)P(=O)(O)O)ccc4[nH]3)C(=O)N21)C(=O)NC(c1ccccc1)c1ccccc1 (stereo partly drawn) [Compound 24, ((2-(((5S,8S,10aR)-8-(((S)-5-Amino-1-(benzhydrylamino)-1,5-dioxopentan-2-yl)carbamoyl)-3-(3-(4-((2-(2,6-dioxopiperidin-3-yl)-1-oxoisoindolin-4-yl)ethynyl)piperidin-1-yl)-3-oxopropanoyl)-6-oxodecahydropyrrolo[1,2-a][1,5]diazocin-5-yl)-carbamoyl)-1H-indol-5-yl)difluoromethyl)phosphonic Acid]
times less potent than SD-36 in STAT3 degradation ([1]; Molm-16 cells, ratio of DC50): 6 times

NC(=O)CC[C@H](NC(=O)[C@@H]1CC[C@@H]2CCN(C(=O)CCCCCCCc3cccc4c3CN(C3CCC(=O)NC3=O)C4=O)C[C@H](NC(=O)c3cc4cc(C(F)(F)P(=O)(O)O)ccc4[nH]3)C(=O)N21)C(=O)NC(c1ccccc1)c1ccccc1 (stereo partly drawn) [Compound 25, ((2-(((5S,8S,10aR)-8-(((S)-5-Amino-1-(benzhydrylamino)-1,5-dioxopentan-2-yl)carbamoyl)-3-(8-(2-(2,6-dioxopiperidin-3-yl)-1-oxoisoindolin-4-yl)octanoyl)-6-oxodecahydropyrrolo-[1,2-a][1,5]diazocin-5-yl)-carbamoyl)-1H-indol-5-yl)-difluoromethyl)phosphonic Acid]
times less potent than SD-36 in STAT3 degradation ([1]; Molm-16 cells, ratio of DC50): 2–3 times

NC(=O)CC[C@H](NC(=O)[C@@H]1CC[C@@H]2CCN(C(=O)CCCCCCNc3cccc4c3CN(C3CCC(=O)NC3=O)C4=O)C[C@H](NC(=O)c3cc4cc(C(F)(F)P(=O)(O)O)ccc4[nH]3)C(=O)N21)C(=O)NC(c1ccccc1)c1ccccc1 (stereo partly drawn) [Compound 26, ((2-(((5S,8S,10aR)-8-(((S)-5-Amino-1-(benzhydrylamino)-1,5-dioxopentan-2-yl)carbamoyl)-3-(7-((2-(2,6-dioxopiperidin-3-yl)-1-oxoisoindolin-4-yl)amino)heptanoyl)-6-oxodecahydropyrrolo[1,2-a][1,5]diazocin-5-yl)carbamoyl)-1H-indol-5-yl)difluoromethyl)phosphonic Acid]
times less potent than SD-36 in STAT3 degradation ([1]; Molm-16 cells, ratio of DC50): 2–3 times

NC(=O)CC[C@H](NC(=O)[C@@H]1CC[C@@H]2CCN(C(=O)CCCCCC#Cc3ccc4c(c3)CN(C3CCC(=O)NC3=O)C4=O)C[C@H](NC(=O)c3cc4cc(C(F)(F)P(=O)(O)O)ccc4[nH]3)C(=O)N21)C(=O)NC(c1ccccc1)c1ccccc1 (stereo partly drawn) [Compound 28, ((2-(((5S,8S,10aR)-8-(((S)-5-Amino-1-(benzhydrylamino)-1,5-dioxopentan-2-yl)carbamoyl)-3-(8-(2-(2,6-dioxopiperidin-3-yl)-1-oxoisoindolin-5-yl)oct-7-ynoyl)-6-oxodecahydropyrrolo-[1,2-a][1,5]diazocin-5-yl)carbamoyl)-1H-indol-5-yl)difluoromethyl)phosphonic Acid]
times less potent than SD-36 in STAT3 degradation ([1]; Molm-16 cells, ratio of DC50): 5–10 times

NC(=O)CC[C@H](NC(=O)[C@@H]1CC[C@@H]2CCN(C(=O)CCCCCC#Cc3ccc4c(c3)C(=O)N(C3CCC(=O)NC3=O)C4)C[C@H](NC(=O)c3cc4cc(C(F)(F)P(=O)(O)O)ccc4[nH]3)C(=O)N21)C(=O)NC(c1ccccc1)c1ccccc1 (stereo partly drawn) [Compound 29, ((2-(((5S,8S,10aR)-8-(((S)-5-Amino-1-(benzhydrylamino)-1,5-dioxopentan-2-yl)carbamoyl)-3-(8-(2-(2,6-dioxopiperidin-3-yl)-3-oxoisoindolin-5-yl)oct-7-ynoyl)-6-oxodecahydropyrrolo-[1,2-a][1,5]diazocin-5-yl)carbamoyl)-1H-indo 1–5-yl)difluoromethyl)phosphonic Acid]
times less potent than SD-36 in STAT3 degradation ([1]; Molm-16 cells, ratio of DC50): 5–10 times
